Experimental findings from patent US20240294541A1, “COMPOUNDS CONSTITUTING C20-MODIFIED SALINOMYCIN DERIVATIVES, A METHOD FOR OBTAINING THE SAME, A COMPOSITION CONTAINING THE SAME AND A USE OF SAID COMPOUNDS” (FILECLO SPOLKA Z OGRANICZONA ODPOWIEDZIALNOSCIA, priority 2021, published 2024) are described below.

Counter-ions that a name gives are not always drawn. Like-named read-outs stand apart in the source and are kept apart here.

Common to all, as to assay type: cell-based
Assay [1] concerns NCI-H23 (human lung cancer). The assay is described as follows: In vitro cytotoxicity, SRB assay, NCI-H23. As to conditions: Homo sapiens, NCI-H23; 72 h with compound, SRB; n/a = non-active compound; read-out: NCI-H23 IC50.
Assay [2] deals with PFSK-1 (malignant primitive neuroectodermal tumour). The assay is described as follows: In vitro cytotoxicity, SRB assay, PFSK-1. Particulars: Homo sapiens, PFSK-1; 72 h with compound, SRB; n/a = non-active compound; read-out: PFSK-1 IC50.
The subject of assay [3] is A2780 (human ovarian cancer). In words: In vitro cytotoxicity, SRB assay, A2780. As to conditions: Homo sapiens, A2780; 72 h with compound, SRB; n/a = non-active compound; read-out: A2780 IC50.
Assay [4] relates to A2780Cis (cisplatin-resistant human ovarian cancer). The assay is described as follows: In vitro cytotoxicity, SRB assay, A2780Cis. As to conditions: for IC50: Homo sapiens, A2780cis.
In assay [5] the test system is PLC/PRF/5 (human liver cancer). In words: cells. Particulars: Homo sapiens, PLC-PRF-5; 72 h with compound, SRB; n/a = non-active compound; read-out: PLC/PRF/5 IC50.
Assay [6] relates to SNU-16 (human gastric cancer). The assay is described as follows: cells. Particulars: Homo sapiens, SNU-16; 72 h with compound, MTT; n/a = non-active compound; read-out: SNU-16 IC50.
The subject of assay [7] is KG-1 (human acute myeloid leukaemia). The assay is described as follows: In vitro cytotoxicity, MTT assay, KG-1. Particulars: Homo sapiens; 72 h with compound, MTT; n/a = non-active compound.
Assay [8] has as its system BALB/3T3 (normal mouse fibroblasts). The assay is described as follows: In vitro cytotoxicity, SRB assay, normal BALB/3T3 fibroblasts. Particulars: Table 5; BALB/3T3 normal mouse fibroblasts; read-out: IC50 (nM) BALB3T3 normal cells.
The subject of assay [9] is MV-4-11 (human biphenotypic leukaemia). The assay is described as follows: In vitro cytotoxicity, MTT assay, MV-4-11. Particulars: for IC50: Homo sapiens, MV4-11, read-out: IC50 (nM) MV4-11.
The mark [10] stands for this setting: 72 h, read-out: A2780Cis IC50 (nM).

Regarding `CC[C@@H](C(=O)[C@@H](C)[C@@H](O)[C@H](C)[C@@H]1O[C@@H]([C@@H](CC)C(=O)O)CC[C@@H]1C)[C@H]1O[C@]2(C=C[C@@H](NC(=O)NS(=O)(=O)c3ccc(C)cc3)[C@]3(CC[C@@](C)([C@H]4CC[C@](O)(CC)[C@H](C)O4)O3)O2)[C@H](C)C[C@@H]1C` [FLC-00364-1], the IC50 was determined as 4.79 µM in [1]; 5.6 µM in assay [2]; 2.6 µM in assay [3]; 1130 nM in [4] (setting [10]); 4.48 µM in [5]; 5.38 µM in assay [6]. The IC50 in assay [7] turned out to be 3.7 µM. The “A2780Cis RI” value in [4] worked out at 0.4.
Consider `CC[C@@H](C(=O)[C@@H](C)[C@@H](O)[C@H](C)[C@@H]1O[C@@H]([C@@H](CC)C(=O)O)CC[C@@H]1C)[C@H]1O[C@]2(C=C[C@@H](NC(=O)NS(=O)(=O)c3ccccc3)[C@]3(CC[C@@](C)([C@H]4CC[C@](O)(CC)[C@H](C)O4)O3)O2)[C@H](C)C[C@@H]1C` [FLC-00365-1], for which the IC50 in [2] is 6.2 µM; in assay [3] it was 3.48 µM; in assay [4] (setting [10]) it was 3020 nM; in assay [6], 5.83 µM; in [7], 8 µM. The “A2780Cis RI” value in assay [4] amounted to 0.9.
`CCOC(=O)C(=O)N[C@@H]1C=C[C@]2(O[C@H]([C@@H](CC)C(=O)[C@@H](C)[C@@H](O)[C@H](C)[C@@H]3O[C@@H]([C@@H](CC)C(=O)O)CC[C@@H]3C)[C@@H](C)C[C@H]2C)O[C@@]12CC[C@@](C)([C@H]1CC[C@](O)(CC)[C@H](C)O1)O2` [FLC-00373-1, C20-aminosalinomycin oxalate derivative]: the IC50 in [3] came out at 6.69 µM; in assay [7], 9.06 µM.
With `CC[C@@H](C(=O)[C@@H](C)[C@@H](O)[C@H](C)[C@@H]1O[C@@H]([C@@H](CC)C(=O)O)CC[C@@H]1C)[C@H]1O[C@]2(C=C[C@@H](NC(=O)OC(C)(C)C#N)[C@]3(CC[C@@](C)([C@H]4CC[C@](O)(CC)[C@H](C)O4)O3)O2)[C@H](C)C[C@@H]1C` [FLC-00551-1•Na], the “SI A2780Cis” value in [4] was 12.5. Also, the IC50 in [4] (read-out: IC50 (nM) A2780Cis) was 63.6 nM; in [8], 792 nM; in [9], 81 nM. Moreover, the “SI MV4-11” value in assay [9] was found to be 9.8.
For the compound `C#CC(C)(C)OC(=O)N[C@@H]1C=C[C@]2(O[C@H]([C@@H](CC)C(=O)[C@@H](C)[C@@H](O)[C@H](C)[C@@H]3O[C@@H]([C@@H](CC)C(=O)O)CC[C@@H]3C)[C@@H](C)C[C@H]2C)O[C@@]12CC[C@@](C)([C@H]1CC[C@](O)(CC)[C@H](C)O1)O2` [FLC-00552-1•Na], the “SI A2780Cis” value in assay [4] is recorded as 46.7. The figures for the IC50 in [4] (read-out: IC50 (nM) A2780Cis), in [8] and in [9] were 4.02 nM, 187 nM and 5.84 nM, respectively. Besides, the “SI MV4-11” value in [9] is given as 32.1.
Turning to `CC[C@@H](C(=O)[C@@H](C)[C@@H](O)[C@H](C)[C@@H]1O[C@@H]([C@@H](CC)C(=O)O)CC[C@@H]1C)[C@H]1O[C@]2(C=C[C@@H](NC(=O)OC3CCN(C)CC3)[C@]3(CC[C@@](C)([C@H]4CC[C@](O)(CC)[C@H](C)O4)O3)O2)[C@H](C)C[C@@H]1C` [FLC-00559-1•Na], the “SI A2780Cis” value in assay [4] is 16.2. For the same compound, the IC50 in assay [4] (read-out: IC50 (nM) A2780Cis) is 330 nM; in assay [8], 5340 nM; in assay [9], 300 nM. Further, in assay [9], the “SI MV4-11” value turned out to be 17.8.
As to `CC[C@@H](C(=O)[C@@H](C)[C@@H](O)[C@H](C)[C@@H]1O[C@@H]([C@@H](CC)C(=O)O)CC[C@@H]1C)[C@H]1O[C@]2(C=C[C@@H](NC(=O)N3CCS(=O)(=O)CC3)[C@]3(CC[C@@](C)([C@H]4CC[C@](O)(CC)[C@H](C)O4)O3)O2)[C@H](C)C[C@@H]1C` [FLC-00560-1•Na], the “SI A2780Cis” value in [4] is 18.8. The IC50 came out at 283 nM in assay [4] (read-out: IC50 (nM) A2780Cis), 5330 nM in assay [8] and 339 nM in assay [9]. Moreover, the “SI MV4-11” value in [9] turned out to be 15.7.
Taken in the same sequence, the figures for `CC[C@@H](C(=O)[C@@H](C)[C@@H](O)[C@H](C)[C@@H]1O[C@@H]([C@@H](CC)C(=O)O)CC[C@@H]1C)[C@H]1O[C@]2(C=C[C@@H](NC(=O)NCc3cccnc3)[C@]3(CC[C@@](C)([C@H]4CC[C@](O)(CC)[C@H](C)O4)O3)O2)[C@H](C)C[C@@H]1C` [FLC-00566-1•Na] were 47.6, 122 nM, 5820 nM, 255 nM and 22.8.
As to `CC[C@@H](C(=O)[C@@H](C)[C@@H](O)[C@H](C)[C@@H]1O[C@@H]([C@@H](CC)C(=O)O)CC[C@@H]1C)[C@H]1O[C@]2(C=C[C@@H](NC(=O)NCCc3cccnc3)[C@]3(CC[C@@](C)([C@H]4CC[C@](O)(CC)[C@H](C)O4)O3)O2)[C@H](C)C[C@@H]1C` [FLC-00567-1•Na], in assay [4], the “SI A2780Cis” value was determined as 54.2. The results for the IC50 in [4] (read-out: IC50 (nM) A2780Cis), in assay [8] and in assay [9] were 15.7 nM, 848 nM and 34 nM, respectively. Further, in assay [9], the “SI MV4-11” value is 25.0.
Take `CC[C@@H](C(=O)[C@@H](C)[C@@H](O)[C@H](C)[C@@H]1O[C@@H]([C@@H](CC)C(=O)O)CC[C@@H]1C)[C@H]1O[C@]2(C=C[C@@H](NC(=O)OCCN3CCOCC3)[C@]3(CC[C@@](C)([C@H]4CC[C@](O)(CC)[C@H](C)O4)O3)O2)[C@H](C)C[C@@H]1C` [FLC-00570-1•Na]: in assay [4], the “SI A2780Cis” value worked out at 21.2. Also, the figures for the IC50 in [4] (read-out: IC50 (nM) A2780Cis), in [8] and in assay [9] were 30 nM, 636 nM and 43.7 nM, respectively. Further, the “SI MV4-11” value in [9] is recorded as 14.6.
Turning to `CC[C@@H](C(=O)[C@@H](C)[C@@H](O)[C@H](C)[C@@H]1O[C@@H]([C@@H](CC)C(=O)O)CC[C@@H]1C)[C@H]1O[C@]2(C=C[C@@H](NC(=O)OCCC(C)(C)O)[C@]3(CC[C@@](C)([C@H]4CC[C@](O)(CC)[C@H](C)O4)O3)O2)[C@H](C)C[C@@H]1C` [FLC-00577-1•Na], in assay [4], the “SI A2780Cis” value was 30.0. The IC50 in assay [4] (read-out: IC50 (nM) A2780Cis) turned out to be 29.1 nM; in [8] it was 874 nM; in assay [9], 42.8 nM. Besides, the “SI MV4-11” value in [9] came to 20.4.
`CC[C@@H](C(=O)[C@@H](C)[C@@H](O)[C@H](C)[C@@H]1O[C@@H]([C@@H](CC)C(=O)O)CC[C@@H]1C)[C@H]1O[C@]2(C=C[C@@H](NC(=O)c3ccccc3C(F)(F)F)[C@]3(CC[C@@](C)([C@H]4CC[C@](O)(CC)[C@H](C)O4)O3)O2)[C@H](C)C[C@@H]1C` [FLC-00578-1•Na]: in assay [4], the “SI A2780Cis” value amounted to 184.9. The values for the IC50 in assay [4] (read-out: IC50 (nM) A2780Cis), in [8] and in assay [9] were 1.94 nM, 358 nM and 5.99 nM, respectively. The “SI MV4-11” value in [9] was 59.8.
Turning to `CC[C@@H](C(=O)[C@@H](C)[C@@H](O)[C@H](C)[C@@H]1O[C@@H]([C@@H](CC)C(=O)O)CC[C@@H]1C)[C@H]1O[C@]2(C=C[C@@H](NC(=O)c3cccc(C(F)(F)F)c3)[C@]3(CC[C@@](C)([C@H]4CC[C@](O)(CC)[C@H](C)O4)O3)O2)[C@H](C)C[C@@H]1C` [FLC-00579-1•Na], the “SI A2780Cis” value in assay [4] is 22.3. Moreover, the IC50 was found to be 71.4 nM in assay [4] (read-out: IC50 (nM) A2780Cis), 1590 nM in assay [8] and 188 nM in assay [9]. Also, in assay [9], the “SI MV4-11” value stood at 8.5.
For the compound `CC[C@@H](C(=O)[C@@H](C)[C@@H](O)[C@H](C)[C@@H]1O[C@@H]([C@@H](CC)C(=O)O)CC[C@@H]1C)[C@H]1O[C@]2(C=C[C@@H](NC(=O)OC3CCOCC3)[C@]3(CC[C@@](C)([C@H]4CC[C@](O)(CC)[C@H](C)O4)O3)O2)[C@H](C)C[C@@H]1C` [FLC-00580-1•Na], in assay [4], the “SI A2780Cis” value worked out at 94.4. The IC50 in assay [4] (read-out: IC50 (nM) A2780Cis) was 2.24 nM; in [8] it was 211 nM; in [9], 6.51 nM. In assay [9], the “SI MV4-11” value worked out at 32.5.
